The source made the active and inactive calls. The rule behind the calls is not given here.
What was measured:
[1] = system: WI-38; test: (§1) Antiproliferative activity against human WI38 cells after 72 hrs by MTT assay; format: cell-based; settings: Homo sapiens, WI-38, 72 h
[2] = as §1; format: cell-based, WI-38; settings: human, WI-38 cells; read-out: LC50
[3] = system: DNA; test: Binding affinity to calf thymus DNA assessed as hypochromic effect at 20 uM by UV/Vis spectra analysis; format: nucleic-acid assay; settings: Bos taurus
[4] = system: SW-620; test: Antiproliferative activity against human SW620 cells after 72 hrs by MTT assay; format: functional, cell-based; settings: SW-620, 72 h; for CC50: read-out: LC50 (the source's name)
[5] = system: DNA; test: Binding affinity to calf thymus DNA at 50 uM by Circular dichroism spectra analysis; format: nucleic-acid assay; settings: Bos taurus
[6] = system: SK-BR-3; test: Antiproliferative activity against human SKBR3 cells after 72 hrs by MTT assay; format: functional, cell-based; settings: SK-BR-3, 72 h; for CC50: read-out: LC50 (the source's name)
[7] = system: DNA; test: Binding affinity to calf thymus DNA assessed as change in melting temperature at 0.5 drug/DNA ratio by spectrophotometer analysis; format: nucleic-acid assay; settings: Bos taurus
[8] = system: MCF7; test: Antiproliferative activity against human MCF7 cells after 72 hrs by MTT assay; format: functional, cell-based; settings: MCF7, 72 h; for CC50: read-out: LC50 (the source's name)
[9] = system: HeLa; test: Antiproliferative activity against human HeLa cells after 72 hrs by MTT assay; format: functional, cell-based; settings: for CC50: read-out: LC50 (the source's name)
[10] = system: MIA PaCa-2; test: Antiproliferative activity against human MIAPaCa2 cells after 72 hrs by MTT assay; format: functional, cell-based; settings: MIA PaCa-2, 72 h; for CC50: read-out: LC50 (the source's name)
[11] = target: T1, DNA topoisomerase 1 (Homo sapiens) (UniProt P11387); test: Inhibition of human topoisomerase 1-mediated supercoiled pUC19 DNA relaxation at 1 to 50 uM after 45 mins by agarose gel electrophoresis
T1 sequence (whole entry): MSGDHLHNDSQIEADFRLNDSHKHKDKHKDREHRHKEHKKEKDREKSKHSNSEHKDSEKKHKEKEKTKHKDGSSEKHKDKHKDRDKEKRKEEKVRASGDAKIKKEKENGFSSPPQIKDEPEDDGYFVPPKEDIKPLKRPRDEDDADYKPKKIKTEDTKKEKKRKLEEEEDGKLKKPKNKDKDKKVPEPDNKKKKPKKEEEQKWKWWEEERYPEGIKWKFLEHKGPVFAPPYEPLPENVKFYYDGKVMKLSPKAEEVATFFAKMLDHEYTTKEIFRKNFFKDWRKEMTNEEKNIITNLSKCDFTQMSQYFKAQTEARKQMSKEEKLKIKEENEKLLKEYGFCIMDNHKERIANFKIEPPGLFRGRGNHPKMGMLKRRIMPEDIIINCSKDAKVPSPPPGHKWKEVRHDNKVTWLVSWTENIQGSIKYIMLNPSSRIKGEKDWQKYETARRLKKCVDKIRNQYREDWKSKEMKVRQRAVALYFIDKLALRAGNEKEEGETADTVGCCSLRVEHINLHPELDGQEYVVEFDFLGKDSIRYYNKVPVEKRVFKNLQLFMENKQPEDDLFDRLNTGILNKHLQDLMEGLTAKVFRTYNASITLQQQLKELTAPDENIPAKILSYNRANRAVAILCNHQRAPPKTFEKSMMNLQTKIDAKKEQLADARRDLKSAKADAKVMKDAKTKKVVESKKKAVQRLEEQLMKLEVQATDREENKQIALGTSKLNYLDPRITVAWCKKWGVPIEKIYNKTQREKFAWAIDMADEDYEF

[12] = system: DNA; test: Binding affinity to calf thymus DNA assessed as change in melting temperature at 0.25 drug/DNA ratio by spectrophotometer analysis; format: nucleic-acid assay; settings: Bos taurus
[13] = target: T1, DNA topoisomerase 1 (Homo sapiens); test: Inhibition of human topoisomerase 1-mediated supercoiled pUC19 DNA relaxation assessed as formation of open circle form after 45 mins using ethidium bromide staining by agarose gel electrophoresis
[14] = target: DNA topoisomerase 2-alpha (Homo sapiens) (UniProt P11388); test: Inhibition of human topoisomerase 2-mediated supercoiled pUC19 DNA relaxation assessed as formation of open circle form after 45 mins using ethidium bromide staining by agarose gel electrophoresis
Chain of DNA topoisomerase 2-alpha (Homo sapiens) (P11388 whole entry): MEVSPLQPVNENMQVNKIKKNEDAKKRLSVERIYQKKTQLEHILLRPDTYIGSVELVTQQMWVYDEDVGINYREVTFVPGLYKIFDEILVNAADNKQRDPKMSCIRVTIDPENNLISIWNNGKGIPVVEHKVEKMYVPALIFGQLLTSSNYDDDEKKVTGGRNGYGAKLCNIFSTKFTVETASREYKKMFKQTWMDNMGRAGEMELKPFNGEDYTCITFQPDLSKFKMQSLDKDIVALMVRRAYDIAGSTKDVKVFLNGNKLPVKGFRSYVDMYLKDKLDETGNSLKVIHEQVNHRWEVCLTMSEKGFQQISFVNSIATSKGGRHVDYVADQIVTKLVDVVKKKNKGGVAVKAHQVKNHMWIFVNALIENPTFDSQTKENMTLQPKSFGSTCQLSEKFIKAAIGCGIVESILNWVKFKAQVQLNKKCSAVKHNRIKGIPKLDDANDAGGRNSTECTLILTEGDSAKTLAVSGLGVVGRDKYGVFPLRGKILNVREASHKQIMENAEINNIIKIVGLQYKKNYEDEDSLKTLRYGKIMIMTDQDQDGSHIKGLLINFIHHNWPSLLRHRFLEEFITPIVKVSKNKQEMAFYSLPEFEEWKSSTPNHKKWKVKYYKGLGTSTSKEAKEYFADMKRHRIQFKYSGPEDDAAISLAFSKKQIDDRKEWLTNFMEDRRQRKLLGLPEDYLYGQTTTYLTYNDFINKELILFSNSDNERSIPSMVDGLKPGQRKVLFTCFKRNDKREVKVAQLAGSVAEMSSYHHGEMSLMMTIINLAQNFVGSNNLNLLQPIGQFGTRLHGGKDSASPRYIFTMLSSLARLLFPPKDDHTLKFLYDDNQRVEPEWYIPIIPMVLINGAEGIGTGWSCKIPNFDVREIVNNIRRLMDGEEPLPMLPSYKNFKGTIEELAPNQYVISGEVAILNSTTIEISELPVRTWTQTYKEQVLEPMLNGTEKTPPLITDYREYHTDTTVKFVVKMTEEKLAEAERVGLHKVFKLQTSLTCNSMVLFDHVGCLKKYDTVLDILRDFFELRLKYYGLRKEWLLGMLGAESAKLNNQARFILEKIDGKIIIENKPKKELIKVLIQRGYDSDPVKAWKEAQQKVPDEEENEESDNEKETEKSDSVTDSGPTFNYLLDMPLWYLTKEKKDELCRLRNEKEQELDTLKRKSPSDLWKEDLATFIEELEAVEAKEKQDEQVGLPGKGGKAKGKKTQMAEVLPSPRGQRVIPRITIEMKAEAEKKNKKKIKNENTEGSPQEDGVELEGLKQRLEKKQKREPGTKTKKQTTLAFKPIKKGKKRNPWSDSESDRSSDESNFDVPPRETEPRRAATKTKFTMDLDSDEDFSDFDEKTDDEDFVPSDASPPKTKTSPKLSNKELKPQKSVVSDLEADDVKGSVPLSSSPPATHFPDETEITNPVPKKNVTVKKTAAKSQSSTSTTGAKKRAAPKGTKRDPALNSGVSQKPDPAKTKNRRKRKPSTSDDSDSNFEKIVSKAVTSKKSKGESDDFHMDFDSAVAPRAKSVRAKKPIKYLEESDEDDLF

| Structure (SMILES) | IC50 [1] [µM] | CC50 at 72 h [2] [µM] | Activity [3] | IC50 [4] [µM] | CC50 [4] [µM] | Activity [5] | IC50 [6] [µM] | CC50 [6] [µM] | ΔTm [7] [°C] | IC50 [8] [µM] | CC50 [8] [µM] | IC50 [9] [µM] | CC50 [9] [µM] | IC50 [10] [µM] | CC50 [10] [µM] | inhibition [11] | ΔTm [12] [°C] | inhibition [13] | inhibition [14] |
| --- | --- | --- | --- | --- | --- | --- | --- | --- | --- | --- | --- | --- | --- | --- | --- | --- | --- | --- | --- |
| N=C(N)c1ccc2nc(-c3ccccc3-c3nc4ccc(C(=N)N)cc4s3)sc2c1 | 86.4 | > 100 | Active | > 100 | > 100 | Active | 86.6 | > 100 | 9.8 | 30.9 | > 100 | 63.6 | > 100 | 44.8 | > 100 | – | – | – | – |
| c1ccc(-c2nc3ccc(C4=NCCN4)cc3s2)c(-c2nc3ccc(C4=NCCN4)cc3s2)c1 | 8.99 | 74.3 | Active | 24.7 | 81.3 | Active | 1.86 | 67.9 | 16.8 | 10.1 | 71.4 | 26.8 | 76.4 | 14.6 | 72.9 | Active | – | – | – |
| N=C(N)c1ccc2nc(-c3cccc(-c4nc5ccc(C(=N)N)cc5s4)c3)sc2c1 | 0.99 | 65.4 | Active | 6.01 | > 100 | Active | 83.2 | > 100 | – | 5.34 | > 100 | > 100 | > 100 | > 100 | > 100 | – | 13.7 | Active | Active |
| N=C(N)c1ccc2nc(-c3ccc(-c4nc5ccc(C(=N)N)cc5s4)cc3)sc2c1 | 41.9 | > 100 | Active | > 100 | > 100 | inactive | 8.55 | > 100 | 3 | 9.01 | > 100 | 9.6 | > 100 | 20.4 | > 100 | – | – | Active | Active |
